ChEMBL document CHEMBL1938312, “Design and combinatorial synthesis of a novel kinase-focused library using click chemistry-based fragment assembly” (Bioorg Med Chem Lett, 2012)
Activity calls are given as the source filed them. The calls are words filed in the database; no cut-off is given here.

Experiments:
[1] = biological target: T1, Aurora kinase A (Homo sapiens) (UniProt O14965); experiment: Inhibition of Aurora A at 10 uM by colorimetric analysis
T1 sequence (whole entry): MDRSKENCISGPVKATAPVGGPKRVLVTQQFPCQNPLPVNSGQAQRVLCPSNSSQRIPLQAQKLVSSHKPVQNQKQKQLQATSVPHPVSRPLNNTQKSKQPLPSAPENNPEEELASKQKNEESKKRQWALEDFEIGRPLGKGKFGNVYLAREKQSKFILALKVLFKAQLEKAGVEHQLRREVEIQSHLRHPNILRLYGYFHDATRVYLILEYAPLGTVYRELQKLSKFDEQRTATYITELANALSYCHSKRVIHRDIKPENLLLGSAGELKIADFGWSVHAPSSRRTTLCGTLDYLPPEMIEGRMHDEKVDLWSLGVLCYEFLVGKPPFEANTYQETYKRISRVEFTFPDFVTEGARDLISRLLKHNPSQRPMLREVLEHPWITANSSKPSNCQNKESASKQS

[2] = biological target: Tyrosine-protein kinase CSK (Homo sapiens) (UniProt P41240); experiment: Inhibition of CSK at 10 uM by colorimetric analysis
Sequence of Tyrosine-protein kinase CSK (Homo sapiens) (P41240 2-450 limits assumed): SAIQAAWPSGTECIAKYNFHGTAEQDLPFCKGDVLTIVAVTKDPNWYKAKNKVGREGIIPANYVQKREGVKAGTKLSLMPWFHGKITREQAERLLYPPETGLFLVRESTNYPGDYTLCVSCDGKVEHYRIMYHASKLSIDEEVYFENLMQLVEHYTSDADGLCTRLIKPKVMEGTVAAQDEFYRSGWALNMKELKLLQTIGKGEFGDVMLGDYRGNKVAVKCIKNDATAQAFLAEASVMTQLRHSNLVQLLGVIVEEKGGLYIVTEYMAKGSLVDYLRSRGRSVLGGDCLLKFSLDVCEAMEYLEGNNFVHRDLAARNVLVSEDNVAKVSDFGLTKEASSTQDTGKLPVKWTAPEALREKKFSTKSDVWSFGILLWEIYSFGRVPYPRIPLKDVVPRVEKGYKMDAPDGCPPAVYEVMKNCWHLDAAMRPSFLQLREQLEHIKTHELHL

[3] = biological target: cAMP-dependent protein kinase catalytic subunit alpha (Homo sapiens) (UniProt P17612); experiment: Inhibition of PKACa at 10 uM by colorimetric analysis
[4] = biological target: Mitogen-activated protein kinase 14 (Homo sapiens) (UniProt Q16539); experiment: Inhibition of p38alpha at 10 uM by colorimetric analysis
Sequence of Mitogen-activated protein kinase 14 (Homo sapiens) (Q16539 whole entry): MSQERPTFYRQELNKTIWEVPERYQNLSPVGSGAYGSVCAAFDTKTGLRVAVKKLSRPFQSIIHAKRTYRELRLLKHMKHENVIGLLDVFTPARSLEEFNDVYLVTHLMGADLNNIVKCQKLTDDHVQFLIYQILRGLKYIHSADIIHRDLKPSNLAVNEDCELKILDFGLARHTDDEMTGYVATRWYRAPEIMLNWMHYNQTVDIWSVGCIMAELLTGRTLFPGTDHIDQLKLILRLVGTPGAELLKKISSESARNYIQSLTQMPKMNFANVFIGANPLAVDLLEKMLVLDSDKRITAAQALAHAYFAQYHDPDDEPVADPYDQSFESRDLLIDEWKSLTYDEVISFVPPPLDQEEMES

[5] = biological target: Death-associated protein kinase 1 (Homo sapiens) (UniProt P53355); experiment: Inhibition of DAPK1 at 10 uM by colorimetric analysis
[6] = biological target: Platelet-derived growth factor receptor alpha (Homo sapiens) (UniProt P16234); experiment: Inhibition of PDGFRalpha at 10 uM by colorimetric analysis
Sequence of Platelet-derived growth factor receptor alpha (Homo sapiens) (P16234 whole entry): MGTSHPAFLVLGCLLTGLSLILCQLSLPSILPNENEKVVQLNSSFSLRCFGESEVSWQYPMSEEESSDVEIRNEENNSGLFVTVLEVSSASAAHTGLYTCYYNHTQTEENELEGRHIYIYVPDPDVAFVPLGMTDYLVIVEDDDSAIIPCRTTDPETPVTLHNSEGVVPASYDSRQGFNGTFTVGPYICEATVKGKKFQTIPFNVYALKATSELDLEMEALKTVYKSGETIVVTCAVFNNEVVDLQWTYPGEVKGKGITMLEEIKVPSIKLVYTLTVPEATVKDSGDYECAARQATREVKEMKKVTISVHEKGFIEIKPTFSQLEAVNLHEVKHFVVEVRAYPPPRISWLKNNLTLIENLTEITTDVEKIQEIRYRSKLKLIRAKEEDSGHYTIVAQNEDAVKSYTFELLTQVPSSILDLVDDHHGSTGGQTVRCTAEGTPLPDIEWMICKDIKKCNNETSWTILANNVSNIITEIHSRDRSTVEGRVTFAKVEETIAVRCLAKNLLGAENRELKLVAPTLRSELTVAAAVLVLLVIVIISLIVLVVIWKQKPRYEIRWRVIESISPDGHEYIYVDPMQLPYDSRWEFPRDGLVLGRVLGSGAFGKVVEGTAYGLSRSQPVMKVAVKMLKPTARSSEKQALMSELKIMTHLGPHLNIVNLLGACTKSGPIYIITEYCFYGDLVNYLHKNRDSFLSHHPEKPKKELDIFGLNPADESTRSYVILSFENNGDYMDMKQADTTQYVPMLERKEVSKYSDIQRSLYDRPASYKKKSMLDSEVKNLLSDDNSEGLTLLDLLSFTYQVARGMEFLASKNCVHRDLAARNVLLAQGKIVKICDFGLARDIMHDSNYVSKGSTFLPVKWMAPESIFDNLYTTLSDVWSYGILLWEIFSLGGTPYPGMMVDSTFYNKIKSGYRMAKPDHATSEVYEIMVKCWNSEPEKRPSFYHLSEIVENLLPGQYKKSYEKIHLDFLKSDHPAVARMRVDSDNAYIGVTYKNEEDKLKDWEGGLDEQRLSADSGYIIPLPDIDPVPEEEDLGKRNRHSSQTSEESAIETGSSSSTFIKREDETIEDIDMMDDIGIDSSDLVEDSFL

[7] = biological target: RAC-alpha serine/threonine-protein kinase (Homo sapiens) (UniProt P31749); experiment: Inhibition of AKT1 at 10 uM by colorimetric analysis
[8] = biological target: Serine/threonine-protein kinase pim-1 (Homo sapiens) (UniProt P11309); experiment: Inhibition of PIM1 at 10 uM by colorimetric analysis
[9] = biological target: T2, Tyrosine-protein kinase ITK/TSK (Homo sapiens) (UniProt Q08881); experiment: Inhibition of ITK at 10 uM by colorimetric analysis
T2 sequence (whole entry): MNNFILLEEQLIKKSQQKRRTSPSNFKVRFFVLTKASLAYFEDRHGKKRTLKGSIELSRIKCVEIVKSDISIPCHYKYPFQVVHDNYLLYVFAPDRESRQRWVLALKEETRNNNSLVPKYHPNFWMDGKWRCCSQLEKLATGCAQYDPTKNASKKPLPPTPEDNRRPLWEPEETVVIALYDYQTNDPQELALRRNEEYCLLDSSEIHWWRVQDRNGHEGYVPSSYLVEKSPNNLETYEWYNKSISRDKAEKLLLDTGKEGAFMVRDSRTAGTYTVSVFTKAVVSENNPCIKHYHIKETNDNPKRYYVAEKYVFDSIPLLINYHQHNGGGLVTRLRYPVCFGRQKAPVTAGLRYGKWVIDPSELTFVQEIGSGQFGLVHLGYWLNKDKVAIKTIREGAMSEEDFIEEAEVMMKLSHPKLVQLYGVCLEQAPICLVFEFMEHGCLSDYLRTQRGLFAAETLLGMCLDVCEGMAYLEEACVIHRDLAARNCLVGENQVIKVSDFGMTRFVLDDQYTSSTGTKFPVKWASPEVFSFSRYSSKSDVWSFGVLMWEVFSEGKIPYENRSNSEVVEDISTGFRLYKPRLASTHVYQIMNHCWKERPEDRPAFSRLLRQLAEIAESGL

[10] = biological target: T3, 5'-AMP-activated protein kinase subunit beta-1 (Homo sapiens) (UniProt Q9Y478); experiment: Inhibition of AMPKbeta1 at 10 uM by colorimetric analysis
T3 sequence (whole entry): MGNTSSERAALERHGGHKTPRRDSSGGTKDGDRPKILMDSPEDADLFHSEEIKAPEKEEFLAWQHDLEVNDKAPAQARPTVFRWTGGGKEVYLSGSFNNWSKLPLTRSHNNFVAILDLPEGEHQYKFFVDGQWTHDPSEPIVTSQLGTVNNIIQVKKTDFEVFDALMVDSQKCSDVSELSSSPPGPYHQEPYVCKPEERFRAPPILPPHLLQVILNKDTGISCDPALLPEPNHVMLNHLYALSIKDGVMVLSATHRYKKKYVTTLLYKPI

[11] = biological target: Glycogen synthase kinase-3 beta (Homo sapiens, UniProt P49841); experiment: Inhibition of GSK3-beta at 10 uM by colorimetric analysis
Sequence of Glycogen synthase kinase-3 beta (P49841 whole entry, looked up): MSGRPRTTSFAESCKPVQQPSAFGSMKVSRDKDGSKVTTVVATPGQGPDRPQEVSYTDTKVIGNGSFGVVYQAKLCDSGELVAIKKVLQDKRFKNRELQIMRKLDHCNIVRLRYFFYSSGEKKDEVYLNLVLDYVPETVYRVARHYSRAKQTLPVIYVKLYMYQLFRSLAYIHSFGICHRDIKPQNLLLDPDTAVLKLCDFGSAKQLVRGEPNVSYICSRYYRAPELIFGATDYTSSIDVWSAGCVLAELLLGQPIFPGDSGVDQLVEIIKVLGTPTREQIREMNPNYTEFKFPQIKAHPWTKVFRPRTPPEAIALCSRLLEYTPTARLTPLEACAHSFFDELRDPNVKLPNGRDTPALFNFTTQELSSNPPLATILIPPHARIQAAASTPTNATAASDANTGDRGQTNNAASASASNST

[12] = biological target: Epidermal growth factor receptor (Homo sapiens) (UniProt P00533); experiment: Inhibition of EGFR at 10 uM by colorimetric analysis
Sequence of Epidermal growth factor receptor (Homo sapiens) (P00533 whole entry): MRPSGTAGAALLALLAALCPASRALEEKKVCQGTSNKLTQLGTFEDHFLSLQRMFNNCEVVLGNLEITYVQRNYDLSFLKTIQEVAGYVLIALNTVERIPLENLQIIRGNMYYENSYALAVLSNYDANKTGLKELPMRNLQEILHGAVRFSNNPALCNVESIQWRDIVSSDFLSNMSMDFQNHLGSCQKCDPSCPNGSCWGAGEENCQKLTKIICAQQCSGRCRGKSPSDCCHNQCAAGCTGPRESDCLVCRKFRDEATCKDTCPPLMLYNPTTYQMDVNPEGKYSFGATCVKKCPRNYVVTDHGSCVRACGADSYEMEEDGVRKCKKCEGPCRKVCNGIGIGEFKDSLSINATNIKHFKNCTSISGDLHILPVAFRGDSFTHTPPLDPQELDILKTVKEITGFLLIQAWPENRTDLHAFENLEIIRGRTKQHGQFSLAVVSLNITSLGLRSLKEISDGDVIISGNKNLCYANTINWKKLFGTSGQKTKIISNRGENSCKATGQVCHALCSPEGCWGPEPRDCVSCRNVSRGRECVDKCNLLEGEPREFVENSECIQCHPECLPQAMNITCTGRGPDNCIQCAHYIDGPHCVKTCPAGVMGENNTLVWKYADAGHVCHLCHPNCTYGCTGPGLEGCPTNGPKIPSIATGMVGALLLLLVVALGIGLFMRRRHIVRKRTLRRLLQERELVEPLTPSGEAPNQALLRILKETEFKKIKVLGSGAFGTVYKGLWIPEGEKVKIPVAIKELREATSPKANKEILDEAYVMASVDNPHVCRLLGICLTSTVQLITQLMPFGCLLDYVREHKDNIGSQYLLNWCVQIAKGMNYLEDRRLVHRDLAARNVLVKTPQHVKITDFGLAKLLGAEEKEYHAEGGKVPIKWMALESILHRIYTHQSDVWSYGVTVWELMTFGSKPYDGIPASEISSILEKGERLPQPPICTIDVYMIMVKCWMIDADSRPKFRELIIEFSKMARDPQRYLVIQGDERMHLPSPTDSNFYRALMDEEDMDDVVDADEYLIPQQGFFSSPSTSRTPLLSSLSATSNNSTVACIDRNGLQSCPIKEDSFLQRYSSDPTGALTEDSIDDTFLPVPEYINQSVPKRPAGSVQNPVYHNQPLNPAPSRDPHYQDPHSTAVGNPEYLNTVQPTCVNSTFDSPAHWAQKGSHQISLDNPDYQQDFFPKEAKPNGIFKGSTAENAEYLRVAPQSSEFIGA

[13] = biological target: Vascular endothelial growth factor receptor 2 (Homo sapiens) (UniProt P35968); experiment: Inhibition of KDR at 10 uM by colorimetric analysis
[14] = biological target: Protein-tyrosine kinase 2-beta (Homo sapiens) (UniProt Q14289); experiment: Inhibition of PYK2 at 10 uM by colorimetric analysis
[15] = biological target: T4, Serine/threonine-protein kinase Sgk1 (Homo sapiens) (UniProt O00141); experiment: Inhibition of SGK at 10 uM by colorimetric analysis
T4 sequence (whole entry): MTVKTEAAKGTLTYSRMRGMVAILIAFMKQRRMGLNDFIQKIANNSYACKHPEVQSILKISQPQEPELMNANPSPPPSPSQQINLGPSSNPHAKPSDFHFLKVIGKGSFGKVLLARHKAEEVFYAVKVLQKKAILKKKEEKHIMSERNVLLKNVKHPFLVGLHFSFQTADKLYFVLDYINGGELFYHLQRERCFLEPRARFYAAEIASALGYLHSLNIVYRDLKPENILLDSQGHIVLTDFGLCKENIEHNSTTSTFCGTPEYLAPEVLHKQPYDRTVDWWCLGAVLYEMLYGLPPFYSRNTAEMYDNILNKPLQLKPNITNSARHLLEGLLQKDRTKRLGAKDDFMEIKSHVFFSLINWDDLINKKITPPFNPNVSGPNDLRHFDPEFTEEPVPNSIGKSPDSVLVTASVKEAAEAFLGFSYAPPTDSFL

[16] = biological target: Protein kinase C alpha type (Homo sapiens) (UniProt P17252); experiment: Inhibition of PKCalpha at 10 uM by colorimetric analysis
[17] = biological target: Angiopoietin-1 receptor (Homo sapiens) (UniProt Q02763); experiment: Inhibition of TIE2 at 10 uM by colorimetric analysis
[18] = biological target: High affinity nerve growth factor receptor (Homo sapiens) (UniProt P04629); experiment: Inhibition of TRKA at 10 uM by colorimetric analysis
Sequence of High affinity nerve growth factor receptor (Homo sapiens) (P04629 33-796 limits assumed): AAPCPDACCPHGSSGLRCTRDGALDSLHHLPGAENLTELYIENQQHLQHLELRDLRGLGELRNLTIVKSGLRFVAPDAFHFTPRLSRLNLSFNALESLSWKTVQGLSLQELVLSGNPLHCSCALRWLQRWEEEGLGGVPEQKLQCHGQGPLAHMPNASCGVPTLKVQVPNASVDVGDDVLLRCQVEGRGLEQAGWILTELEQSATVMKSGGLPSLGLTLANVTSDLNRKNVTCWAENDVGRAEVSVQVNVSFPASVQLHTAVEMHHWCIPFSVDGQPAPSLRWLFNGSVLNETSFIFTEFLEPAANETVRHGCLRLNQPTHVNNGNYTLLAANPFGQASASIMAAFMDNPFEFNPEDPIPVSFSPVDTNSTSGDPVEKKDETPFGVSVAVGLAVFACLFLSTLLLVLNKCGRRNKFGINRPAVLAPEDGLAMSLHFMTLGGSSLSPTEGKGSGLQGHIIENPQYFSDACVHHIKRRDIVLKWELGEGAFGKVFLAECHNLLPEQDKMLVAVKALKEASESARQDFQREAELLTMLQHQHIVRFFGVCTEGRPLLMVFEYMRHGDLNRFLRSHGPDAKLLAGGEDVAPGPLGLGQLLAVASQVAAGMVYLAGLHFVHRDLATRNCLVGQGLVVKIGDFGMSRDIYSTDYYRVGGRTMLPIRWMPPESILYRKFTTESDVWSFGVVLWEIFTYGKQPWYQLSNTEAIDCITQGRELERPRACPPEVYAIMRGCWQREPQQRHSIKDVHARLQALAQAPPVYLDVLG

[19] = biological target: Hepatocyte growth factor receptor (Homo sapiens) (UniProt P08581); experiment: Inhibition of MET at 10 uM by colorimetric analysis
[20] = biological target: 5'-AMP-activated protein kinase catalytic subunit alpha-1 (Homo sapiens) (UniProt Q13131); experiment: Inhibition of AMPKalpha1 at 10 uM by colorimetric analysis
[21] = biological target: Proto-oncogene tyrosine-protein kinase Src (Homo sapiens) (UniProt P12931); experiment: Inhibition of SRC at 10 uM by colorimetric analysis

Structure (SMILES)	inhibition [1]	inhibition [2]	inhibition [3]	inhibition [4]	inhibition [5]	inhibition [6]	inhibition [7]	inhibition [8]	inhibition [9]	inhibition [10]	inhibition [11]	inhibition [12]	inhibition [13]	inhibition [14]	inhibition [15]	inhibition [16]	inhibition [17]	inhibition [18]	inhibition [19]	inhibition [20]	other results
Clc1cccc(-n2cc(-c3ccncc3)nn2)c1	Active	inactive	Active	Active	Active	inactive	Active	Active	inactive	Active	Active	inactive	inactive	inactive	Active	Active	inactive	inactive	inactive	Active	inhibition [21]: inactive
Clc1ccc(-n2nncc2-c2ccncc2)cc1	Active	inactive	Active	Active	Active	inactive	Active	Active	inactive	Active	Active	inactive	inactive	inactive	Active	Active	inactive	inactive	inactive	Active	inhibition [21]: inactive
Clc1ccc(-n2cc(-c3ccncc3)nn2)cc1	Active	inactive	Active	Active	Active	inactive	Active	Active	inactive	Active	Active	inactive	inactive	inactive	Active	Active	inactive	inactive	inactive	Active	inhibition [21]: inactive
Clc1cccc(-n2nncc2-c2ccncc2)c1	Active	inactive	Active	Active	Active	inactive	Active	Active	inactive	Active	Active	inactive	inactive	inactive	Active	Active	inactive	inactive	inactive	Active	inhibition [21]: inactive
